In publication PMC11050599, “Novel Tetracyclic Azaphenothiazines with the Quinoline Ring as New Anticancer and Antibacterial Derivatives of Chlorpromazine” (International Journal of Molecular Sciences, 2024):
Where two headings read alike, the source gives them in different places.

How the values were obtained:
[1] = tested on: A549 (lung cancer); experiment: MTT assay, A549 cells; type: cell-based, human; conditions: for IC50: Homo sapiens, A549, MTT, 72 h, mean SD, read-out: IC50 A549; for SI A549: SI = IC50 for normal cell line (HaCaT)/IC50 cancer cell line
Protocol: (§1) The human cell lines, such as A549 (lung cancer), MDA-MB-231 (breast cancer), MiaPaca-2 (pancreatic cancer), PC3 (metastatic prostate cancer), HCT-116 (colon carcinoma), and HaCaT (immortalized keratinocytes), were sourced from the American Type Culture Collection (ATCC) in Rockville, USA. Culturing conditions varied as follows: HCT116 cells were cultured in MEM (ThermoSci, Waltham, MA, USA), A549, MDA-MB-231, MiaPaca, HaCaT cells in DMEM High Glucose and PC3 cells were cultured in RPMI (Biowest SAS, Nuaillé, France). The growth medium consisted of 10% fetal bovine serum (FBS, Sigma-Aldrich, St. Louis, MO, USA), 20 mM HEPES (Biowest, Nuaillé, France), and antibiotics (100 U/mL of penicillin and 100 μg/mL of streptomycin) from Gibco, Grand Island, NY, USA. […] These compounds were added to 96-well plates containing study cells (1 × 10^4 cells per well) and incubated for 72 h. […] Cell absorbance results were incorporated into the formula for calculating the relative MTT level (%), enabling the assessment of cell viability following exposure to the test compounds. The cell viability percentage represents the MTT reduction in cells treated with the test compounds compared to the control sample, where only the medium was added to the cells.

[2] = tested on: MDA-MB-231 (breast cancer); experiment: MTT assay, MDA-MB-231 cells; type: cell-based, human; conditions: for IC50: Homo sapiens, MDA-MB-231, MTT, 72 h, MDA-MB231, read-out: IC50 MDA; for SI MDA: SI = IC50 for normal cell line (HaCaT)/IC50 cancer cell line
Protocol: as §1

[3] = tested on: HaCaT (immortalized human keratinocytes); experiment: MTT assay, HaCaT normal cells; type: cell-based; conditions: Homo sapiens, HaCaT, MTT, 72 h, normal cells
Protocol: as §1

[4] = tested on: MiaPaCa-2 (pancreas cancer); experiment: MTT assay, MiaPaCa-2 cells; type: cell-based, human
Protocol: as §1

[5] = tested on: PC3 (prostate cancer); experiment: MTT assay, PC3 cells; type: cell-based, human
Protocol: as §1

[6] = tested on: HCT116 (colon cancer); experiment: MTT assay, HCT116 cells; type: cell-based, human
Protocol: as §1

[7] = tested on: E. coli ATCC 25922; experiment: MIC broth microdilution; type: cell-based; conditions: Escherichia coli, ATCC25922; 19 h, 35 °C; read-out: MIC E. coli ATCC 25922
Excerpt: (§2) To evaluate the antibacterial effectiveness of chloroquinobenzothiazine derivatives, various bacterial strains from international microbe collections such as the American Type Culture Collection (ATCC) and the National Collection of Type Culture (NCTC) were examined, alongside a panel of clinical rods. This included two Gram-negative organisms, E. coli ATCC 25922 and P. aeruginosa ATCC 15442, and a series of six Gram-positive strains: S. aureus NCTC 4163; S. aureus ATCC 29213, 25923, and 6538; and S. epidermidis ATCC 12228 and 35984. […] The MIC was determined using the two-fold serial broth microdilution method in 96-well microtitration plates containing Mueller-Hinton II broth medium (Becton Dickinson, Franklin Lakes, NJ, USA). The final inoculum for all tested bacteria was adjusted to […] (colony-forming units per milliliter). The stock solution of the tested compounds was prepared in dimethyl sulfoxide (DMSO) and diluted to a maximum of 1% solvent content with a sterile medium.

[8] = tested on: P. aeruginosa ATCC 15442; experiment: MIC broth microdilution; type: cell-based; conditions: Pseudomonas aeruginosa, ATCC15442; 19 h, 35 °C; read-out: MIC P. aeruginosa ATCC 15442
Excerpt: as §2

[9] = tested on: S. aureus ATCC 25923; experiment: MIC broth microdilution; type: cell-based; conditions: Staphylococcus aureus, ATCC25923; 19 h, 35 °C; read-out: MIC S. aureus ATCC 25923
Excerpt: as §2

[10] = tested on: S. aureus ATCC 29213; experiment: MIC broth microdilution; type: cell-based; conditions: Staphylococcus aureus, ATCC29213; 19 h, 35 °C; read-out: MIC S. aureus ATCC 29213
Excerpt: as §2

[11] = tested on: S. aureus ATCC 6538; experiment: MIC broth microdilution; type: cell-based; conditions: Staphylococcus aureus, ATCC6538; 19 h, 35 °C; read-out: MIC S. aureus ATCC 6538
Excerpt: as §2

[12] = tested on: S. aureus NCTC 4163; experiment: MIC broth microdilution; type: cell-based; conditions: Staphylococcus aureus, NCTC4163; 19 h, 35 °C; read-out: MIC S. aureus NCTC 4163
Excerpt: as §2

[13] = tested on: S. epidermidis ATCC 12228; experiment: MIC broth microdilution; type: cell-based; conditions: Staphylococcus epidermidis, ATCC12228; 19 h, 35 °C; read-out: MIC S. epidermidis ATCC 12228
Excerpt: as §2

[14] = tested on: S. epidermidis ATCC 35984; experiment: MIC broth microdilution; type: cell-based; conditions: Staphylococcus epidermidis, ATCC35984; 19 h, 35 °C; read-out: MIC S. epidermidis ATCC 35984
Excerpt: as §2

[15] = SI = IC50 for normal cell line (HaCaT)/IC50 cancer cell line

| Compound | IC50 [1] [µM] | SI A549 [1] | IC50 [2] [µM] | SI MDA [2] | IC50 ([3]; read-out: IC50 HaCaT (Table 3)) [µM] | IC50 ([3]; read-out: IC50 HaCaT (Table 4)) [µM] | IC50 ([4]; Homo sapiens, MIA PaCa-2, MTT, 72 h, read-out: IC50 MiaPaCa-2) [µM] | SI MiaPaCa-2 [4, 15] | IC50 ([5]; Homo sapiens, PC-3, MTT, 72 h, read-out: IC50 PC3) [µM] | SI PC3 [5, 15] | IC50 ([6]; Homo sapiens, HCT-116, MTT, 72 h, read-out: IC50 HCT116) [µM] | SI HCT116 [6, 15] | MIC [7] [µg/mL] | MIC [8] [µg/mL] | MIC [9] [µg/mL] | MIC [10] [µg/mL] | MIC [11] [µg/mL] | MIC [12] [µg/mL] | MIC [13] [µg/mL] | MIC [14] [µg/mL] |
| --- | --- | --- | --- | --- | --- | --- | --- | --- | --- | --- | --- | --- | --- | --- | --- | --- | --- | --- | --- | --- |
| Clc1ccc2c(c1)N(Cc1cn(-c3ccccc3)nn1)c1nc3ccccc3cc1S2 [Compound 27, 8-Chloro-6-((1-phenyl-1H-1,2,3-triazol-4-yl)methyl)-quino[3,2-b]benzo[1,4]thiazine] | 27.5 ± 6.2 | 2.5 | > 100 | 0.7 | 70.2 ± 10.4 | 71.7 ± 7.5 | 37.4 ± 5.6 | 1.9 | > 100 | 1.0 | 49.6 ± 4.7 | 1.4 | > 256 | > 256 | > 256 | > 256 | > 256 | > 256 | > 256 | > 256 |
| Fc1ccc(Cn2cc(CN3c4cc(Cl)ccc4Sc4cc5ccccc5nc43)nn2)cc1 [Compound 30, 8-chloro-6-((1-(4-fluorobenzyl)-1H-1,2,3-triazol-4-yl)methyl)-quino[3,2-b]benzo[1,4]thiazine] | > 100 | 1.0 | > 100 | 1.0 | > 100 | – | – | – | – | – | – | – | > 256 | > 256 | > 256 | > 256 | > 256 | > 256 | > 256 | > 256 |
| N#Cc1ccc(Cn2cc(CN3c4cc(Cl)ccc4Sc4cc5ccccc5nc43)nn2)cc1 [Compound 32, 4-((4-((8-Chloroquino[3,2-b]benzo[1,4]thiazin-6-yl)methyl)-1H-1,2,3-triazol-1-yl)methyl)benzonitrile] | > 100 | 1.0 | > 100 | 1.0 | > 100 | – | – | – | – | – | – | – | > 256 | > 256 | > 256 | > 256 | > 256 | > 256 | > 256 | > 256 |
| Clc1ccc2c(c1)N(Cc1cn(CSc3ccccc3)nn1)c1nc3ccccc3cc1S2 [Compound 33, 8-Chloro-6-((1-((phenylthio)methyl)-1H-1,2,3-triazol-4-yl)methyl)-quino[3,2-b]benzo[1,4]thiazine] | > 100 | 1.0 | > 100 | 1.0 | > 100 | – | – | – | – | – | – | – | > 256 | > 256 | > 256 | > 256 | > 256 | > 256 | > 256 | > 256 |
